Measured values reported in article PMC4549042, “Targeting procaspase-3 with WF-208, a novel PAC-1 derivative, causes selective cancer cell apoptosis” (Journal of Cellular and Molecular Medicine, 2015).
Residues, ends and D or L forms follow the SMILES beside them. *: point of attachment. Cbz = O=C(OCc1ccccc1)*; CH2F = FC*

Test system: HL-60 cell line
Assay: MTT cell viability assay, HL-60
Assay type: cell-based
Details: Homo sapiens, 72 hrs
Experimental: (§1) The cell viability effects of the tested compounds were determined by MTT assay. Cells (1 × 10^4 cells/100 μl/well) were seeded into 96-well culture plates. After overnight incubation, cells were treated with various concentrations of compounds for 72 hrs. Subsequently, 10 μl MTT solution (2.5 mg/ml in PBS) was added to each well, than the cells were incubated for an additional 3–4 hrs at 37°C. After centrifugation (200 × g, 10 min.), the medium with MTT was aspirated, followed by the addition of 100 μl DMSO. The optical density of each well was measured at 570 nm with a Biotek Synergy TM HT Reader.

Row | Compound | IC50 [µM]
1 | C=CCc1cccc(/C=N/NC(=O)CN2CCN(Cc3ccccc3)CC2)c1O [PAC-1] | 2.1
2 | O=C(CN1CCN(Cc2nc(-c3ccc(COc4ccc(F)cc4)cc3)no2)CC1)N/N=C/c1ccc(OCc2ccc(Cl)cc2Cl)cc1O [B2] | 1.02
3 | O=C(CN1CCN(Cc2nc(-c3ccc(COc4ccc(Cl)cc4)cc3)no2)CC1)N/N=C/c1ccc(OCc2ccccc2)cc1O [B1] | 1.26
4 | O=C(CN1CCN(Cc2nc(-c3ccc(COc4ccccc4C(F)(F)F)cc3)no2)CC1)N/N=C/c1ccc(OCc2cccc(F)c2)cc1O [B11] | 1.93
5 | O=C(CN1CCN(Cc2nc(-c3ccc(COc4ccc(Cl)cc4)cc3)no2)CC1)N/N=C/c1ccc(OCc2ccc(Cl)cc2Cl)cc1O [B5] | 1.07
6 | O=C(CN1CCN(Cc2nc(-c3ccc(COc4ccccc4C(F)(F)F)cc3)no2)CC1)N/N=C/c1ccc(OCc2csc(Cc3ccc4c(c3)OCO4)n2)cc1O [C1] | 1.08
7 | O=C(CN1CCN(Cc2nc(-c3ccc(COc4ccc(F)cc4)cc3)no2)CC1)N/N=C/c1ccc(OCc2cccc(C(F)(F)F)c2)cc1O [B3] | 0.98
8 | O=C(CN1CCN(Cc2nc(-c3ccc(COc4ccc(Cl)cc4)cc3)no2)CC1)N/N=C/c1ccc(OCc2cccc(Cl)c2)cc1O [B12] | > 20

The remaining lines, values ahead:

Row | IC50 [µM] | Compound
9 | 0.67 | CC(C)(C)c1ccc(COc2ccc(/C=N/NC(=O)CN3CCN(Cc4nc(-c5ccc(COc6ccc(Cl)cc6)cc5)no4)CC3)c(O)c2)cc1 [B4]
10 | 0.6 | CC(C)(C)c1ccc(COc2ccc(/C=N/NC(=O)CN3CCN(Cc4nc(-c5ccc(COc6ccc(F)cc6)cc5)no4)CC3)c(O)c2)cc1 [B6]
11 | 0.41 | O=C(CN1CCN(Cc2nc(-c3ccc(COc4ccc(F)c(F)c4)cc3)no2)CC1)N/N=C/c1ccc(OCc2ccc(Cl)cc2Cl)cc1O [B9]
12 | 0.4 | CC(C)(C)c1ccc(COc2ccc(/C=N/NC(=O)CN3CCN(Cc4nc(-c5ccc(COc6ccccc6C(F)(F)F)cc5)no4)CC3)c(O)c2)cc1 [B10]
13 | 0.4 | C=CCc1cccc(/C=N/NC(=O)CN2CCN(Cc3nc(-c4ccc(COc5cccc(Cl)c5)cc4)no3)CC2)c1O [A3]
14 | 0.39 | C=CCc1cccc(/C=N/NC(=O)CN2CCN(Cc3nc(-c4ccc(COc5ccc(F)cc5)cc4)no3)CC2)c1O [A2]
15 | 0.35 | C=CCc1cccc(/C=N/NC(=O)CN2CCN(Cc3nc(-c4ccc(COc5ccccc5C(F)(F)F)cc4)no3)CC2)c1O [A4]
16 | 0.34 | O=C(CN1CCN(Cc2nc(-c3ccc(COc4ccc(F)c(F)c4)cc3)no2)CC1)N/N=C/c1ccc(OCc2ccccc2)cc1O [B7]
17 | 0.3 | O=C(CN1CCN(Cc2nc(-c3ccc(COc4ccc(F)c(F)c4)cc3)no2)CC1)N/N=C/c1ccc(OCc2ccc(Cl)cc2)cc1O [B8]
18 | 0.25 | C=CCc1cccc(/C=N/NC(=O)CN2CCN(Cc3nc(-c4ccc(COc5ccc(Cl)cc5)cc4)no3)CC2)c1O [A1]

Biological target: T1, rh-procaspase-3 (Homo sapiens, UniProt P42574)
T1 construct: purchased R&D System (Minneapolis, USA)
T1 sequence (P42574 1-277): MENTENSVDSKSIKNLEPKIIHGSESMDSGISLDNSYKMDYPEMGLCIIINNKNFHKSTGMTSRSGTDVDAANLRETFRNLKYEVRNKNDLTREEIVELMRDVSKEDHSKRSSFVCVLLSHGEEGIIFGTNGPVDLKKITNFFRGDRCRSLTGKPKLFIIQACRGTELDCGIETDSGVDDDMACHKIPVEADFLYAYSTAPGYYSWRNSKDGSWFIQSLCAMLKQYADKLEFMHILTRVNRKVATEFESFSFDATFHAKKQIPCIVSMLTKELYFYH
Assay: Caspase-3 activation assay (procaspase-3 activation in vitro)
Assay type: biochemical
Details: rh-procaspase-3, concentrations 0.08–100 μM
Experimental: Procaspase-3 protein was purchased from R&D System (Minneapolis, USA). Procaspase-3 protein was added into 384-well plates. Tested compounds (or DMSO as control) were then added to achieve a final concentration of procaspase-3 of 50 ng/ml. Each plate was incubated for 2 hrs at 37°C. Then caspase-3 peptide substrate (acetyl Asp-Glu-Val-Asp-[…] (Ac-DEVD-pNa), 200 μM) were added. The absorbance of each well was measured at 405 nm in kinetic mode for 10 min [13].

Row | Compound | EC50 [nM]
19 | C=CCc1cccc(/C=N/NC(=O)CN2CCN(Cc3ccccc3)CC2)c1O [PAC-1] | 6020

Test system: mouse primary cortical cell
Assay: Cytotoxicity in mouse primary cortical neuron cells
Assay type: cell-based
Details: neurotoxicity
Experimental: as §1

Row | Compound | IC50 [nM]
20 | C=CCc1cccc(/C=N/NC(=O)CN2CCN(Cc3ccccc3)CC2)c1O [PAC-1] | 50100

Test system: PC-3 xenograft
Assay: Human prostatic carcinoma PC-3 xenograft mouse model
Assay type: in vivo
Details: 2.5 mg/kg i.v., 15 days
Experimental: To determine the anti-tumour activity of WF-208 in vivo, viable human prostate cancer PC-3 cells (5 × 10^6/100 μl PBS per mouse) were subcutaneously (s.c.) injected into the right flank of 7- to 8-week old male SCID mice. When the average tumour volume reached 100 mm^3, mice were randomly divided into various treatment and control group (eight mice per group). Tumour size was measured once every 2 days with a calliper (calculated volume = shortest diameter^2 × longest diameter/2). Body weight, diet consumption and tumour size were recorded once every 2 days. After 2 weeks, mice were killed and tumours were excised and stored at −80°C until further analysis.

Row | Compound | influence on body weight | tumour volume compared with control group
21 | C=CCc1cccc(/C=N/NC(=O)CN2CCN(Cc3ccccc3)CC2)c1O [PAC-1] | minimal influence | no significantly difference

Test system: HL-60 and U-937 cell lines
Assay: Western blot of Bcl-2 family and IAP proteins in HL-60 and U-937
Assay type: cell-based, human
Details: 5 μM MG132 co-treated with 10 μM WF-208, 24 hrs
Experimental: Approximately 1 × 10^7 HL-60 cells were gathered after pre-treatment with PAC-1 and WF-208 as previously described. The tumour tissue protein was purified according to the reported methods. Western blotting was performed as previously described. All antibodies were purchased from Cell Signaling Technology. In brief, an equal amount of total protein extracts from cultured cells or tissues were fractionated by 10–15% SDS-PAGE and electrically transferred onto polyvinylidene difluoride (PVDF) membranes. Different primary antibodies and corresponding horseradish peroxidase-conjugated secondary antibodies were used to detect the proteins. The bound secondary antibodies on the PVDF membrane were reacted with ECL™ Western Blotting Reagents detection reagents (Thermo Fisher, Rockford, USA) and exposed to X-ray films. Results were normalized to the internal control β-actin.

Row | Compound | effect on down-regulation of XIAP and survivin induced by WF-208
22 | CC(C)C[C@@H](C=O)NC(=O)[C@H](CC(C)C)NC(=O)[C@H](CC(C)C)NC(=O)OCc1ccccc1 [MG132, reference compound] (Cbz-Leu-Leu-Leu-aldehyde) | blocked the down-regulation

Test system: HL-60 and U-937 cell lines
Assay: Caspase inhibitors on WF-208-induced early apoptosis (Annexin V/PI)
Assay type: cell-based, human
Details: 50 μM inhibitor, 10 μM WF-208, 24 hrs
Experimental: Compounds were incubated with HL-60 and U-937 cells for 24 hrs. The cells were harvested and double-stained with FITC-Annexin V Apoptosis Detection Kit (BD Biosciences, San Jase, USA). Cells that positively stained with Annexin V and negatively stained with PI were considered to be early apoptotic.

Row | Compound | effect of inhibitor on WF-208-induced early apoptosis
23 | COC(=O)C[C@H](NC(=O)[C@H](C)NC(=O)[C@@H](NC(=O)OCc1ccccc1)C(C)C)C(=O)CF [Z-VAD-FMK] (Cbz-Val-Ala-Asp(OMe)-CH2F) | abolish
24 | COC(=O)CC[C@H](NC(=O)[C@H](CC(C)C)NC(=O)OCc1ccccc1)C(=O)N[C@@H](Cc1cnc[nH]1)C(=O)N[C@@H](CC(=O)OC)C(=O)CF [Z-LEHD-FMK] (Cbz-LE(OMe)HD(OMe)-CH2F) | partly inhibit
25 | COC(=O)CC[C@H](NC(=O)[C@H](CC(=O)OC)NC(=O)OCc1ccccc1)C(=O)N[C@H](C(=O)N[C@@H](CC(=O)OC)C(=O)CF)C(C)C [Z-DEVD-FMK] | abolish
